Two compounds from ChEMBL document CHEMBL5620426, “Discovery of 3-(1H-benzo[d]imidazole-2-yl)-1H-pyrazol-4 -amine derivatives as novel and potent syk inhibitors for the treatment of hematological malignancies” (Eur J Med Chem, 2023) can be followed below.

Data set [1] is described as follows: Metabolic stability in human liver microsomes assessed as half life at […] incubated for 60 mins in presence of NADPH by LC-MS/MS analysis. It counts as ADME, Microsome. (Microsomes from liver hold many membrane-bound enzymes, among them those of drug oxidation.)
Data set [2] can be described thus: Cmax in fasted Sprague-Dawley rat at 10 mg/kg, po measured for 24 hrs by LC-MS/MS analysis. It counts as ADME, organism-based. The settings on record: in vivo.
Data set [3] can be described thus: Metabolic stability in human liver microsomes assessed as intrinsic clearance at […] incubated for 60 mins in presence of NADPH by LC-MS/MS analysis. It counts as ADME, Microsome. Particulars: read-out: CLH.
Data set [4] deals with DOHH-2. The experiment in a line: Antiproliferative activity against human DOHH-2 cells assessed as inhibition of cell viability incubated for 72 hrs by Cell Titer Glo assay. It counts as functional, cell-based. The settings on record: DOHH-2, 72 h. In general terms: ATP-based viability assays read luminescence as a measure of living cells.
Data set [5] deals with Ramos. The experiment in a line: Inhibition of […] in serum-starved human Ramos cells incubated for 1 hr followed by anti-human IgM F(ab)2 measured after 5 mins. It counts as functional, cell-based.
The target in data set [6] is T1, Tyrosine-protein kinase SYK (Homo sapiens, UniProt P43405). The experiment in a line: Inhibition of Syk (unknown origin) preincubated for 20 mins followed by 33P-gamma-ATP measured after 120 mins by HotSpot assay.
Data set [7] is described as follows: Oral bioavailability in fasted Sprague-Dawley rat at 10 mg/kg measured for 24 hrs by LC-MS/MS analysis. It counts as ADME, organism-based. Particulars: in vivo.
Data set [8] in a line: Half life in fasted Sprague-Dawley rat at 10 mg/kg, po measured for 24 hrs by LC-MS/MS analysis. It counts as ADME, organism-based. Particulars: in vivo.
For data set [9], the system named is SU-DHL-6. The experiment in a line: Antiproliferative activity against human SU-DHL-6 cells assessed as inhibition of cell viability incubated for 72 hrs by Cell Titer Glo assay. It counts as functional, cell-based. Particulars: SU-DHL-6, 72 h.
Data set [10] is described as follows: Volume of distribution at steady state in fasted Sprague-Dawley rat at 1 mg/kg, iv measured for 24 hrs by LC-MS/MS analysis. It counts as ADME, organism-based. Particulars: in vivo, read-out: Vdss.
Data set [11] can be described thus: AUC in fasted Sprague-Dawley rat at 10 mg/kg, po measured for 24 hrs by LC-MS/MS analysis. It counts as ADME, organism-based. The settings on record: in vivo.
Data set [12] deals with T1, Tyrosine-protein kinase SYK. The experiment in a line: Inhibition of SYK phosphorylation in human Ramos cells incubated for 2 hrs by Western blot analysis. It counts as cell-based. Particulars: dose <= 500.0 nM. On the technique in general: A western blot detects proteins with antibodies after separation by electrophoresis.
Data set [13] in a line: C0 in fasted Sprague-Dawley rat at 1 mg/kg, iv measured for 24 hrs by LC-MS/MS analysis. It counts as ADME, organism-based. Particulars: in vivo.
The subject of data set [14] is MV4-11. Nature of the data set: Antitumor activity against human MV4-11 cells xenografted in nude BALB/c mouse assessed as tumor growth inhibition at 1 mg/kg, iv qd for 21 days administered consecutively relative to control. The settings on record: MV4-11, 504 h, time 21 day, read-out: TGI. It counts as functional.
Data set [15] can be described thus: Toxicity in nude BALB/c mouse xenografted with human MV4-11 cells assessed as systemic cytotoxicity at 1 mg/kg, iv qd for 21 days administered consecutively. It counts as organism-based. Particulars: in vivo, 504 h, time 21 day.
Data set [16] in a line: Tmax in fasted Sprague-Dawley rat at 10 mg/kg, po measured for 24 hrs by LC-MS/MS analysis. Particulars: in vivo. It counts as ADME, organism-based.
Data set [17] is described as follows: Toxicity in nude BALB/c mouse xenografted with human MV4-11 cells assessed as body weight loss at 1 mg/kg, iv qd for 21 days administered consecutively. Particulars: in vivo, 504 h, time 21 day. It counts as organism-based.
A short description of data set [18]: Toxicity in nude BALB/c mouse xenografted with human MV4-11 cells assessed as animal mortality at 1 mg/kg, iv qd for 21 days administered consecutively. It counts as organism-based. Particulars: in vivo, 504 h, time 21 day.
For data set [19], the system named is Daudi. The experiment in a line: Antiproliferative activity against human Daudi cells assessed as inhibition of cell viability incubated for 72 hrs by Cell Titer Glo assay. It counts as functional, cell-based.
Data set [20] can be described thus: Clearance in fasted Sprague-Dawley rat at 1 mg/kg, iv measured for 24 hrs by LC-MS/MS analysis. It counts as ADME, organism-based. Particulars: in vivo.
The subject of data set [21] is TMD8. The experiment in a line: Antiproliferative activity against human TMD8 cells assessed as inhibition of cell viability incubated for 72 hrs by Cell Titer Glo assay. The settings on record: TMD8, 72 h. It counts as functional, cell-based.
Data set [22] is described as follows: AUC in fasted Sprague-Dawley rat at 1 mg/kg, iv measured for 24 hrs by LC-MS/MS analysis. It counts as ADME, organism-based. Particulars: in vivo.
Data set [23] concerns the target T1, Tyrosine-protein kinase SYK. Nature of the data set: Inhibition of SYK in human Ramos cells assessed as decrease in PLC-gamma-2 phosphorylation incubated for 2 hrs by Western blot analysis. It counts as cell-based. The settings on record: dose <= 500.0 nM.
Data set [24] is described as follows: Half life in fasted Sprague-Dawley rat at 1 mg/kg, iv measured for 24 hrs by LC-MS/MS analysis. It counts as ADME, organism-based. Particulars: in vivo.
Data set [25] concerns Rec1. Nature of the data set: Antiproliferative activity against human REC1 cells assessed as inhibition of cell viability incubated for 72 hrs by Cell Titer Glo assay. It counts as functional, cell-based. The settings on record: Rec1, 72 h.
Data set [26] concerns MV4-11. Nature of the data set: Inhibition of cell viability in human MV4-11 cells incubated for 72 hrs by Cell Titer Glo assay. It counts as functional, cell-based. The settings on record: MV4-11, 72 h.

For `CC(C)N1CCN(c2ccc3[nH]c(-c4n[nH]cc4Nc4ncnc5[nH]ccc45)nc3c2)CC1`, the half-life is 1.88 h in data set [1], 3.79 h in data set [8] and 6.4 h in data set [24]. The Cmax in data set [2] came out at 18.1 ng/mL. The microsomal CLint in data set [3] came out at 15.4 µL/min/mg. For the same compound, the concentration for half-maximal inhibition (IC50) in data set [4] was 8.68 nM; in data set [5], 18 nM; in data set [6] it was 0.52 nM; in data set [9] it was 216 nM; in data set [19], 719 nM; in data set [21], 10.9 nM. For the same compound, the half-inhibitory concentration (IC50) in [25] worked out at 34.3 nM; in [26] it was 1.5 nM. Further, the bioavailability in data set [7] came to 1.5%. Moreover, the Vd in data set [10] came out at 8.93 L/kg. Further, the AUC at 24 h in data set [11] was 78.8 ng·h/mL; in data set [22] it was 514 ng·h/mL. Also, the inhibition entry in data set [12] and in data set [23] was “Dose-Dependent Effect” in each case. Further, the C0 at 24 h in [13] stood at 1240 ng/mL. In data set [14], the inhibition in vivo at 1 mg/kg amounted to 99.3%. Moreover, the Activity result in data set [15], in data set [17] and in data set [18] was “Non-Toxic” each time. Also, in data set [16], the Tmax stood at 0.833 h. Moreover, in data set [20], the clearance was determined as 33.3 mL/min/kg.

As for `CN1CCN(c2ccc3[nH]c(-c4n[nH]cc4Nc4ncnc5[nH]ccc45)nc3c2)CC1`, the half-life in data set [1] is 1.75 h; in [24], 2.47 h. For the same compound, in data set [3], the microsomal CLint was determined as 13.2 µL/min/mg. The IC50 in [5] amounted to 49.5 nM; in [6] it was 1.6 nM; in [26], 7.9 nM. Also, the Vd in [10] was 6.99 L/kg. This compound came in with a C0 at 24 h in [13] of 763 ng/mL. In data set [20], this compound showed a clearance of 51.7 mL/min/kg. For the same compound, the AUC at 24 h in data set [22] was found to be 332 ng·h/mL.

Broadly, the half-life is how long it takes for the measured level to halve. As usually defined, the Cmax is the highest concentration seen after dosing. By IC50 is commonly meant the concentration needed to halve the response being measured. In general, bioavailability refers to the share of a dose that reaches the circulation, judged against a reference dose that is usually intravenous. A lower bioavailability goes with little systemic uptake. Broadly, the AUC is the area under the concentration-time curve, a measure of exposure. A high value points to high exposure. In general, Tmax refers to the time at which the peak concentration occurs. Broadly, the clearance is a measure of how efficiently the substance is removed, as volume per time. Higher therefore signals efficient removal.
